Source: PubChem BioAssay AID686920 (Broad Institute, 2013)

These compounds were tested on A673 NR0B1-luciferase reporter, viability-normalised luminescence (assay: NR0B1 reporter signal reduction in A673 cells – cell-based, luciferase luminescence, cherry-pick, EWS/Fli inhibitor project, dose response (AID 686920)).

`COc1ccc(NC(=O)N2CCCCN3[C@@H](CO)[C@H](c4ccc(C5=CCCCC5)cc4)[C@@H]3C2)cc1` and `O=C(Nc1ccc(F)cc1)N1CCCCN2[C@@H](CO)[C@H](c3ccc(C4=CCCCC4)cc3)[C@@H]2C1` are within 1.5-fold of each other in AC35: 15.8 µM for the first, 13.3 µM for the second.

First: O=c1ccc2[n+]([O-])c3ccc(O)cc3oc-2c1
Second: COc1ccc2oc(C(=O)NCCc3ccccc3)c(C)c2c1
The AC35 of the first is 1.7-fold lower: 3.7 µM for the first, 6.25 µM for the second.

Going from `O=C1/C(=C\c2ccccc2)CN(C(=O)CCN2CCCCC2)C/C1=C/c1ccccc1` to `O=C(CCCN1C(=O)S/C(=C\c2ccccc2)C1=O)NNC(=O)c1ccccc1O`, the AC35 rises from 2.54 µM to 4.38 µM (1.7-fold).

First: CCCCCCCCCCCCCCCCCCNc1ccn(C2OC(COP(=O)(O)OCC3OC(n4cc(F)c(=O)[nH]c4=O)CC3O)C(O)C2O)c(=O)n1 (stereo not given)
Second: O=c1[nH]c(=O)n([C@H]2C[C@H](O)[C@@H](CO)O2)cc1C(F)(F)F
The AC35 of the first is 5.6-fold higher: 18.8 µM for the first, 3.33 µM for the second.

Going from `Cc1ccc(NC(=O)CCN2CCCCC2)cc1` to `COc1ccccc1NC(=O)N1CCCCN2[C@H](CO)[C@H](c3ccc(-c4cccc(C)c4)cc3)[C@H]2C1`, the AC35 falls from 26.1 µM to 8.3 µM (3.1-fold).

Compared with `Cc1ccc(S(=O)(=O)Nc2ccc3c(c2)C(=O)N([C@@H](C)CO)C[C@H](C)[C@@H](CN(C)Cc2ccc(C(F)(F)F)cc2)OCCCC[C@@H](C)O3)cc1`, `C[C@@H]1CCCCO[C@H](CN(C)Cc2ccc(C(=O)Nc3ccccc3N)cc2)[C@@H](C)CN([C@H](C)CO)C(=O)c2cc(NS(=O)(=O)c3ccc(Cl)cc3)ccc2O1` is 2-fold lower in AC35: 10.2 µM for the first, 5.04 µM for the second.

`Cc1cc(C)c2sc(NNC(=O)c3ccc(S(=O)(=O)N4CCc5ccccc5C4)cc3)nc2c1` and `Cc1cccc(/C=C(\c2nc3ccccc3[nH]2)S(=O)(=O)c2ccccc2)c1` are within 1.5-fold of each other in AC35: 5.12 µM for the first, 5.46 µM for the second.

Going from `C[C@@H]1CN([C@H](C)CO)S(=O)(=O)c2ccc(C#CC(C)(C)O)cc2O[C@H]1CN(C)Cc1ccc(-c2ccccc2)cc1` to `C[C@@H]1CN([C@H](C)CO)C(=O)c2cc(N(C)C)ccc2O[C@H]1CN(C)Cc1ccc(C(=O)Nc2ccccc2N)cc1`, the AC35 rises from 4.22 µM to 9.4 µM (2.2-fold).

First: COc1cc2oc3cc(C#Cc4ccc(N)cc4)ccc3c(=O)c2cc1OC
Second: COc1ccc(Nc2oc(COc3ccccc3OC)nc2C#N)cc1
The AC35 of the first is 1.7-fold higher: 10.3 µM for the first, 6.24 µM for the second.

Compared with `CC1(C)N=C(N)N=C(N)N1c1ccc(OCCCOc2ccccc2)c(Cl)c1`, `CC(=NNc1cc(C)c2ccccc2n1)c1ccccn1` is 3.2-fold higher in AC35: 2.61 µM for the first, 8.23 µM for the second.

Going from `COc1ccc(S(=O)(=O)Nc2cccc3c2O[C@H](CN(C)Cc2ccc(C(=O)Nc4ccccc4N)cc2)[C@H](C)CN([C@@H](C)CO)C3=O)cc1` to `C[C@H](CO)N1C[C@H](C)[C@@H](CN(C)Cc2ccc(Oc3ccccc3)cc2)Oc2ccc(NS(=O)(=O)c3ccc(Cl)cc3)cc2CC1=O`, the AC35 rises from 5.64 µM to 22.8 µM (4-fold).

Going from `C=C1C(=O)OC2C1CCC(C)C1C=CC(=O)C12C` (stereo not given) to `CC(=O)OC1CC2(O)C3CCC4CC(O)CCC4(C)C3CCC2(C)C1C1=CC(=O)OC1` (stereo not given), the AC35 falls from 15.5 µM to 0.231 µM (67-fold).

First: COc1ccc(/C=C2\SC(=S)N(CCCC(=O)NNC(=O)c3ccccc3O)C2=O)cc1
Second: COC(=O)Cc1[nH]n(-c2nc3ccccc3s2)c(=O)c1C(C)=Nc1ccc(OC)cc1
The AC35 of the first is 2.1-fold higher: 9.15 µM for the first, 4.31 µM for the second.

First: COc1cc2c(cc1OC)C(C)N(C(=O)c1cc(Cl)nc(Cl)c1)CC2 (stereo not given)
Second: COc1ccc(Cl)cc1S(=O)(=O)Nc1ccc2c(c1)n(C)c(=O)n2C
The AC35 of the first is 5.2-fold lower: 6.06 µM for the first, 31.3 µM for the second.

Going from `Cc1cc2sc3ccc(C#CC4(O)CCCCC4)cc3c(=O)c2cc1C` to `N#C[C@@H]1[C@H](c2ccc(C#Cc3cccc(F)c3)cc2)[C@@H](CO)N1C(=O)C1CCCC1`, the AC35 rises from less than 0.03 µM to 4.38 µM.

`O=C(O)c1ccc2cc(-c3ccccc3)[nH]c2c1` and `O=C(O)c1ccc(N/N=C/c2cc(Br)cs2)cc1` are within 1.5-fold of each other in AC35: 6.18 µM for the first, 7.22 µM for the second.

`COc1ccc(C2=Nn3c(nnc3-c3ccccc3OC)SC2)cc1OCC1CC1` and `COc1ccc2nc(-c3ccc(F)cc3)sc2c1` are within 1.5-fold of each other in AC35: 6.71 µM for the first, 8.38 µM for the second.

`CCNC(=O)c1cc2c(c(-c3cccc(-c4cccc(OC)c4)c3)n1)[C@H](CCO)N([S@@](=O)C(C)(C)C)C2` and `COc1ccc(C(C)(O)c2nc(-c3cccc(F)c3)cs2)cc1` (stereo not given) are within 1.5-fold of each other in AC35: 6.78 µM for the first, 8.04 µM for the second.

Going from `Cc1c(CC(=O)NCCCC(=O)O)c(=O)oc2cc3c(cc12)CCC(C)(C)O3` to `CN1C(=O)c2cc(NC(=O)c3ccc(Cl)cc3)ccc2OC[C@@H]2O[C@@H](CC(=O)NCc3cccc(F)c3)CC[C@H]21`, the AC35 rises from 2.74 µM to 7.86 µM (2.9-fold).

Compared with `Cc1ccc2c(=O)n3c(nc2c1)C(Cc1ccc(O)cc1)NC(=O)c1cc2ccccc2cc1-3` (stereo not given), `O=C(C[C@@H]1C[C@H]2c3cc(NS(=O)(=O)c4ccc(F)cc4)ccc3O[C@H]2[C@H](CO)O1)NCc1ccc(-c2ccccc2)cc1` is 3.1-fold lower in AC35: 6.25 µM for the first, 2.03 µM for the second.

Compared with `Cc1sc2nc(CN3CCC(C)CC3)nc(Cl)c2c1C`, `Cc1c(Cc2ccc3c(c2)OCO3)sc(NC(=O)C(C)(C)C)c1C#N` is 6.4-fold lower in AC35: 63 µM for the first, 9.84 µM for the second.

Going from `CC(C)Oc1ccc(Br)cc1C(=O)N/N=C/c1c[nH]c2ccccc12` to `O=C(C[C@@H]1CC[C@@H]2[C@H](COC[C@@H](O)CN2S(=O)(=O)c2ccc(F)cc2)O1)NCc1ccc(Cl)c(Cl)c1`, the AC35 rises from 17.2 µM to 61.8 µM (3.6-fold).

`C[C@H]1O[C@@H](O[C@H]2[C@@H](O)C[C@H](O[C@H]3[C@@H](O)C[C@H](O[C@H]4CC[C@@]5(C)[C@H](CC[C@@H]6[C@@H]5C[C@@H](O)[C@]5(C)[C@@H](C7=CC(=O)OC7)CC[C@]65O)C4)O[C@@H]3C)O[C@@H]2C)C[C@H](O)[C@@H]1O` showed an AC35 of 0.0886 µM.
